Assay results reported in US20250064899A1, “USE OF THE 15-LIPOXYGENASE FOR THE TREATMENT OF LYMPHEDEMA” (INSERM (INSTITUT NATIONAL DE LA SANTÉ ET DE LA RECHERCHE …, priority 2022, published 2025).
“Also recorded” adds a separate entry of the source. One block for each molecule: values may come before it.

Legend:
lymphatic monolayer = settings: literature reference 17; cited from earlier work
[1] = system: LEC (lymphatic endothelium); assay: effect of 15-HETE on the cultured LEC; type: cell-based
From the text: To decipher the role of 15-Lox lipid derived mediators, we studied the effect of 15-HETE on the cultured LEC. We identified a direct effect of 15 HETE on the lymphatic endothelium. It promoted Tcells adhesion to the lymphatic monolayer (data not shown), had no effect on LEC proliferation (data not shown), but stimulated their migration (data not shown).

15-LOX = target: T1, 15-LOX (Mus musculus, UniProt P39654); assay: 15-LOX inhibitor in mouse model of lymphedema; type: in vivo; settings: in presence of 15-LOX inhibitor
T1 construct: from tissue; host or cells: living C57BL/6J mice (lymphedematous limb)
T1 sequence (P39654 1-663): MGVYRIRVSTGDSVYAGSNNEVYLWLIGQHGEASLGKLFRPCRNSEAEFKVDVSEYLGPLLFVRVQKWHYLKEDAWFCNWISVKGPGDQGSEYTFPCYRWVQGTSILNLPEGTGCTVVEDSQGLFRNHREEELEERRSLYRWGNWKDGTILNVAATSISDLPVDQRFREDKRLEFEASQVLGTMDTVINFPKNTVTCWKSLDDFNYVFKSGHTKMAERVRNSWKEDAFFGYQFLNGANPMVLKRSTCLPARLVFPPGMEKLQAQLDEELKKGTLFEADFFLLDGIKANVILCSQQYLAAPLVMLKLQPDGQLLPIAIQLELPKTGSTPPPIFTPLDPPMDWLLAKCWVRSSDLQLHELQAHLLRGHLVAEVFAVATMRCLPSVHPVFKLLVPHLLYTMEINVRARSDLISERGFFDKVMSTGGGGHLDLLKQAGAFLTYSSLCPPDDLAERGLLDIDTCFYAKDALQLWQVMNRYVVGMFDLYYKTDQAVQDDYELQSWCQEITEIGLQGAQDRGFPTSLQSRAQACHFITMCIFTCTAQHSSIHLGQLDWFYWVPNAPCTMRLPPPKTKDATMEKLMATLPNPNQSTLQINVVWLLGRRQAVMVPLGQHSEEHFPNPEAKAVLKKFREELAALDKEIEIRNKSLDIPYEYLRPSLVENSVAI
Procedure: Mice were housed in individually ventilated cages in a temperature and light regulated room in a SPF facility and received food and water ad libitum. Female C57BL/6J (6 weeks old) were obtained from Janvier (Le Genest Saint Isle, France). Mouse model of lymphedema was performed as previously described (Morfoisse ATVB 2008).
To understand the molecular mechanisms underlying the inflammatory process in lymphedema, we performed a time course analysis of the adipose tissue in a mouse model of lymphedema (not shown). […] In early stages of LD (2 weeks post surgery), no significant difference in lipid content was observed (data not shown). In contrast, in acquired lymphedema (8 weeks post-surgery), we found similar pattern as those observed in human tissue samples (data not shown). In particular, we observed a decrease in AA-derived lipid mediators generated by 15-LOX (15-HETE) whereas no difference was found in lipids generated by DHA metabolism (17-HDOHE) (data not shown). After eight weeks of LD, we observed that changes in pro-resolvin content was associated with a decrease in 15-LOX mRNA and protein expression (data not shown). Importantly, the downregulation of 15-LOX was also observed in the lymphatic endothelium (data not shown).
To evaluate the role of 15-LOX in LD, we used the PD146176 pharmacological inhibitor. […] As we previously shown that Tcell populations were recruited during LD development, we next performed flow cytometry analysis. We observed in the presence of 15-LOX inhibitor an increase in CD4+ Tcells during LD associated with a decrease in Treg recruitment (data not shown). This was confirmed by a decrease of Tregs (Foxp3 positive cells) immunodetection in lymphedematous tissues (data not shown).

Structure (SMILES): CCCCC/C=C\C[C@H](O)/C=C/C=C\C/C=C\CCCC(=O)O [12-HETE]
effect on the lymphatic monolayer (lymphatic monolayer): generates holes in the lymphatic monolayer

Structure (SMILES): CCCCC[C@H](O)/C=C/C=C\C/C=C\C/C=C\CCCC(=O)O [15-HETE, 15-hydroxyeicosatetraenoic acid]
deleterious effect / damages on the lymphatic endothelium ([1]; compared to 12-HETE): no deleterious effect; also recorded: did not cause lymphatic damages
LEC proliferation ([1]; cultured LEC): no effect

Treg recruitment (15-LOX; flow cytometry): decrease
Tregs (Foxp3 positive cells) immunodetection in lymphedematous tissues (15-LOX): decrease
LD swelling (15-LOX; mouse model of lymphedema): increased
dermal backflow (15-LOX; mouse model of lymphedema): strong dermal backflow
dermal fibrosis (15-LOX; mouse model of lymphedema): associated with dermal fibrosis
Structure (SMILES): c1ccc2c(c1)SCc1c-2[nH]c2ccccc12 [PD146176]
CD4+ Tcells during LD (15-LOX; flow cytometry): increase
